Each block holds one compound with its values, some of them ahead of it.
Legend:
[1] = tested on: CYP1A2; set-up: method as in Pekthong et al. ([2008]); details: human microsomes; ref Pekthong et al. ([2008]); cited from earlier work
[2] = tested on: CYP1A2; set-up: method as in Pekthong et al. [2009]; details: human hepatocytes; ref Pekthong et al. [2009]; cited from earlier work
[3] = tested on: CYP2D6; experiment: western blot analysis, CYP2D6 protein expression in HepG2 cells; assay type: in vitro ADME, human; details: for effect on CYP2D6 protein expression: HepG2 cells, 48 h, western blot densitometry normalized to β-actin, vs DMSO control
[4] = tested on: CYP3A4; set-up: method as in Pekthong et al. ([2008]); details: human microsomes; ref Pekthong et al. ([2008]); cited from earlier work
[5] = tested on: CYP2C9; set-up: method as in Pekthong et al. ([2008]); details: human microsomes; ref Pekthong et al. ([2008]); cited from earlier work
[6] = tested on: 3A4; set-up: method as in Pekthong et al. [2009]; details: human hepatocytes; ref Pekthong et al. [2009]; cited from earlier work
[7] = tested on: 2C9; set-up: method as in Pekthong et al. [2009]; details: human hepatocytes; ref Pekthong et al. [2009]; cited from earlier work
[8] = tested on: CYP3A4; experiment: western blot analysis, CYP3A4 protein expression in HepG2 cells; details: for effect on CYP3A4 protein expression: HepG2 cells, 48 h, western blot densitometry normalized to β-actin, vs DMSO control
[9] = tested on: CYP1A2; experiment: multiplex RT-qPCR, CYP1A2 mRNA expression in HepG2 cells; details: for concentration from which CYP1A2 mRNA induction was detected/observed: not necessarily statistically significant; for concentration with statistically significant CYP1A2 mRNA induction: P < 0.05 vs control
[10] = tested on: CYP1A2; experiment: western blot analysis, CYP1A2 protein expression in HepG2 cells; assay type: in vitro ADME, human; details: for effect on CYP1A2 protein expression: HepG2 cells, 48 h, western blot densitometry normalized to β-actin, vs DMSO control
Method: All compounds were diluted with concentrated DMSO.

[11] = tested on: CYP1A2; set-up: method as in Wen et al. [2002]; details: 48 h exposure, cultured human hepatocytes; ref Wen et al. [2002]; cited from earlier work
[12] = tested on: CYP3A4; set-up: method as in Graber-Maier et al. [2010]; details: intestinal cells; ref Graber-Maier et al. [2010]; cited from earlier work
[13] = tested on: CYP2D6; experiment: multiplex RT-qPCR, CYP2D6 mRNA expression in HepG2 cells; details: concomitant furafylline and omeprazole, control treated with omeprazole
[14] = tested on: CYP3A4; experiment: multiplex RT-qPCR, CYP3A4 mRNA expression in HepG2 cells
[15] = tested on: cytochrome P450 (CYP) 3A4; set-up: method as in Sunaga et al. [2012]; details: ref Sunaga et al. [2012]; cited from earlier work
[16] = tested on: PXR-responsive genes like CYP3A4; set-up: method as in Ruhl et al. [2004]; details: HepG2 cells; ref Ruhl et al. [2004]; cited from earlier work
[17] = tested on: CYP3A4; set-up: method as in Chow et al. [2010]; details: healthy subjects; ref Chow et al. [2010]; cited from earlier work
[18] = tested on: CYP2C9; set-up: method as in Chow et al. [2010]; details: healthy subjects; ref Chow et al. [2010]; cited from earlier work
[19] = tested on: CYP1A2; set-up: method as in Chow et al. [2010]; details: healthy subjects, ref Chow et al. [2010], cited from earlier work
[20] = tested on: CYP2D6; set-up: method as in Chow et al. [2010]; details: healthy subjects; ref Chow et al. [2010]; cited from earlier work
[21] = HepG2, concomitant furafylline and omeprazole, control treated with omeprazole

effect on CYP2D6 protein expression [3]: up-regulated
mean up-regulation of the CYP2D6 protein ([3]; all concentrations tested, HepG2, 48 h): less than twofold changes
effect on CYP3A4 protein expression [8]: did not affect
SMILES: C=C1CC[C@@H]2[C@](C)(CO)[C@H](O)CC[C@@]2(C)[C@@H]1C/C=C1/C(=O)OC[C@H]1O [andrographolide]
IC50 [1]: > 100000 nM
mRNA expression of CYP1A2 [2]: decrease
IC50 [5]: > 100000 nM
mRNA expression of CYP3A4 [6]: decrease
mRNA expression of CYP2C9 [7]: decrease

CYP1A2 mRNA induction ([9]; 1 μmol/L, HepG2, 48 h, Ct 33 assumed for untreated control): ~11 fold increase
concentration from which CYP1A2 mRNA induction was detected/observed ([9]; HepG2, 48 h): ≥ 1000 nM
effect on CYP1A2 protein expression [10]: only a slight induction
effect on CYP2D6 protein expression [3]: did not affect
effect on CYP3A4 protein expression [8]: did not affect
SMILES: CC(C)=CCC/C(C)=C/COc1c2ccoc2cc2oc(=O)ccc12 [bergamottin]
levels of CYP1A2 protein and mRNA [11]: increased levels

effect on CYP2D6 protein expression [3]: does not affect significantly
effect on CYP3A4 protein expression [8]: significant induction
SMILES: COc1cc(/C=C/C(=O)CC(=O)/C=C/c2ccc(O)c(OC)c2)ccc1O [curcumin]
mRNA expression of CYP3A4 [12]: did not affect

SMILES: Cc1nc2c([nH]1)c(=O)n(C)c(=O)n2Cc1ccco1 [furafylline]
CYP1A2 mRNA expression in omeprazole-induced cells ([9]; HepG2, furafylline 2 h before omeprazole, concomitant treatment, compared with omeprazole-treated cells (control)): significantly reduced
CYP1A2 protein expression in omeprazole-induced cells [10, 21]: reduction was statistically insignificant
CYP2D6 protein expression, furafylline with omeprazole [3, 21]: no significant changes
CYP3A4 protein expression, furafylline with omeprazole [8, 21]: no significant changes
CYP2D6 mRNA expression, furafylline with omeprazole [13]: no significant changes
CYP3A4 mRNA expression, furafylline with omeprazole [14, 21]: no significant changes

SMILES: CC(=O)N1CCN(c2ccc(OCC3COC(Cn4ccnc4)(c4ccc(Cl)cc4Cl)O3)cc2)CC1 (centres unmarked) [ketoconazole, reference compound]
effect on CYP3A4 protein expression [8]: differences were not proved to be significant

effect on CYP2D6 protein expression [3]: did not appear to have any effects
effect on CYP3A4 protein expression [8]: did not appear to have any effects
SMILES: CC(C)=CCC/C(C)=C/C=C/C(C)=C/C=C/C(C)=C/C=C/C=C(C)/C=C/C=C(C)/C=C/C=C(\C)CCC=C(C)C [lycopene]
inhibition of CYP3A4-mediated drug metabolism [15]: does not inhibit
activation potential on PXR-responsive genes like CYP3A4 [16]: no activation potential

CYP1A2 mRNA up-regulation ([9]; 10 μmol/L, HepG2, 48 h, Ct 33 assumed for untreated control): 24 fold changes
concentration with statistically significant CYP1A2 mRNA induction ([9]; HepG2, 48 h): ≥ 10000 nM
concentration from which CYP1A2 mRNA induction was detected/observed ([9]; HepG2, 48 h): ≥ 1000 nM
effect on CYP1A2 protein expression [10]: statistically insignificant
effect on CYP2D6 protein expression [3]: no effects
CYP3A4 mRNA induction ([14]; 0.1 μmol/L, HepG2, 48 h): < 1.5 fold change
concentration with significant CYP3A4 mRNA induction ([14]; HepG2, 48 h, P < 0.05 vs control): 100 nM
SMILES: COc1ccc2[nH]c([S+]([O-])Cc3ncc(C)c(OC)c3C)nc2c1 (centres unmarked) [omeprazole]

concentration with statistically significant CYP1A2 mRNA induction ([9]; HepG2, 48 h): 50000 nM
concentration from which CYP1A2 mRNA induction was detected/observed ([9]; HepG2, 48 h): ≥ 100 nM
effect on CYP1A2 protein expression [10]: insignificant
CYP2D6 protein induction, average ([3]; 0.1 μmol/L, HepG2, 48 h): more than twofold changes
SMILES: Oc1ccc(/C=C/c2cc(O)cc(O)c2)cc1 [resveratrol]
phenotypic index of CYP3A4 [17]: inhibit
effect on CYP2D6 protein expression [3]: statistically significant CYP2D6 protein induction
phenotypic index of CYP2C9 [18]: inhibit
decrease in the caffeine/paraxanthine metabolic ratio ([19]; 4 weeks of 1 g daily): 16%
phenotypic index of CYP1A2 [19]: induces
phenotypic index of CYP2D6 [20]: inhibit

CYP1A2 mRNA up-regulation ([9]; 5 μmol/L, HepG2, 48 h, estimated, Ct 33 assumed for untreated control): more than sixfold change
CYP1A2 mRNA up-regulation ([9]; 50 μmol/L, HepG2, 48 h, estimated, Ct 33 assumed for untreated control): 26 fold change
concentration from which CYP1A2 mRNA induction was detected/observed ([9]; HepG2, 48 h): ≥ 5000 nM
concentration with significantly higher CYP1A2 protein (mean relative intensity) ([10]; HepG2, 48 h, western blot): ≥ 5000 nM
effect on CYP1A2 protein expression [10]: significantly higher
SMILES: O=c1cc(-c2ccccc2)oc2ccc3ccccc3c12 [β-naphthoflavone]
IC50 [1]: 85 nM
effect on CYP2D6 protein expression [3]: remained either unchanged or there were slight changes that were statistically insignificant
effect on CYP3A4 protein expression [8]: remained either unchanged or there were slight changes that were statistically insignificant

From article PMC4237480, “Cytochrome P450 induction properties of food and herbal-derived compounds using a novel multiplex RT-qPCR in vitro assay, a drug–food interaction prediction tool” (Food Science & Nutrition, 2014)
